Measured values published in PubChem BioAssay (NCI).
Several values for one entry are separate records, joined by “and”; a condition that tells them apart may be missing. Equal entries are not always repeated.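 Briefly, cells in 96-well plates were exposed to five compound concentrations for 48 h, and endpoints were estimated by linear interpolation. At the GI50, growth is halved. The concentration for full growth arrest is given as TGI.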

Columns and labels:
Assay in all cases: inhibition of tumour cell growth, NCI panel, 48 h
HCC-2998 colon = test system: HCC-2998 colon
MCF7 breast = test system: MCF7 breast
MALME-3M melanoma = test system: MALME-3M melanoma
U251 CNS = test system: U251 CNS
HCT-15 colon = test system: HCT-15 colon
ACHN renal = test system: ACHN renal
786-0 renal = test system: 786-0 renal
HOP-92 NSCLC = test system: HOP-92 NSCLC
MOLT-4 leukemia = test system: MOLT-4 leukemia
BT-549 breast = test system: BT-549 breast

| Compound | GI50 (HCC-2998 colon) | TGI (HCC-2998 colon) | GI50 (MCF7 breast) | TGI (MCF7 breast) | GI50 (MALME-3M melanoma) | TGI (MALME-3M melanoma) | GI50 (U251 CNS) | TGI (U251 CNS) | GI50 (HCT-15 colon) | TGI (HCT-15 colon) | GI50 (ACHN renal) | TGI (ACHN renal) | GI50 (786-0 renal) | TGI (786-0 renal) | GI50 (HOP-92 NSCLC) | TGI (HOP-92 NSCLC) | GI50 (MOLT-4 leukemia) | TGI (MOLT-4 leukemia) | GI50 (BT-549 breast) | TGI (BT-549 breast) |
| --- | --- | --- | --- | --- | --- | --- | --- | --- | --- | --- | --- | --- | --- | --- | --- | --- | --- | --- | --- | --- |
| COC(=O)CC1=C(C)/C(=C/c2[nH]c(-c3ccc[nH]3)cc2OC)N=C1C | 0.207 µM | 6.07 µM | 0.0828 µM | 0.733 µM | 0.72 µM | 2.35 µM | 0.175 µM | 1.81 µM | 0.0992 µM | 0.894 µM | 0.247 µM | 1.29 µM | 0.191 µM | 0.723 µM | 0.0571 µM | 0.337 µM | 0.17 µM | 3.48 µM | 0.196 µM | 4.29 µM |
| CNC(=O)c1cc(Oc2ccc(NC(=O)Nc3cc(C(C)(C)C)nn3-c3ccc4ncccc4c3)c(F)c2)ccn1 | 3.21 µM and 3.38 µM | 7.82 µM and 7.78 µM | 1.15 µM and 1.05 µM | 9.13 µM and > 53 µM | 0.212 µM and 0.0536 µM | 1.31 µM and 0.5 µM | 2.72 µM and 2.33 µM | 8.87 µM and 7.22 µM | 2.01 µM and 2.35 µM | 7.3 µM and 8.53 µM | 0.915 µM and 0.475 µM | 7.47 µM and > 23.6 µM | 2.69 µM and 3.08 µM | 8.13 µM and 8.95 µM | 0.46 µM and 0.446 µM | 4.85 µM and 4.6 µM | 1.58 µM and 2.08 µM | 8.06 µM and 5.85 µM | 1.08 µM and 2.27 µM | 4.58 µM and 5.65 µM |
| CC(=O)c1c(C)c2cnc(Nc3ccc(N4CCNCC4)cn3)nc2n(C2CCCC2)c1=O | 10.6 µM | 23.9 µM | 0.585 µM | 18.7 µM | 8.25 µM | 24.4 µM | 4.25 µM | 20.3 µM | 4.41 µM | 20 µM | 1.03 µM | 14.7 µM | 5.04 µM | 20.7 µM | 0.803 µM | 22.8 µM | 0.548 µM | 24.9 µM | 13.6 µM | 27.3 µM |
| FC(F)(F)c1cccc(-c2[nH]ncc2-c2nnnn2-c2ccccc2)c1 | 2.5 µM | 11 µM | 3.3 µM | 13.7 µM | 3.66 µM | 13.3 µM | 4.69 µM | 17.1 µM | 3.71 µM | 16.3 µM | 11.2 µM | 24.5 µM | 5.78 µM | 22 µM |  | 8.19 µM | 4.79 µM | 28.8 µM | 3.78 µM | 13.9 µM |
| C=C(C)C(=O)Nc1ccc(-c2c(-c3ccc(Oc4nccc(C)n4)c(F)c3)c3c(N)ncnc3n2C)cc1 | 7.45 µM | 21 µM | 3.55 µM | 16.1 µM | 3.29 µM | 17 µM | 6.21 µM | 25 µM | 3.11 µM | 13.5 µM | 3.81 µM | 20.2 µM | 2.43 µM | 30.6 µM | 2.83 µM | 32.3 µM | 2.78 µM | > 100 µM | 2.08 µM | 15.8 µM |
| COc1cc(-c2ccc[nH]2)[nH]c1/C=C1\N=C(C)C(CC(=O)OCC(C)(C)C)=C1C | 0.368 µM | 1.75 µM | 0.175 µM | 1.25 µM | 0.4 µM | 1.69 µM | 0.141 µM | 1.23 µM | 0.211 µM | 1.12 µM | 0.287 µM | 0.965 µM | 0.3 µM | 1.53 µM | 0.11 µM | 0.531 µM | 0.242 µM | 1.32 µM | 0.286 µM | 1.87 µM |
| COC(=O)c1cc(-c2ccc(S(C)(=O)=O)cc2)[nH]c1N/N=C/c1c(Cl)cccc1Cl | 0.987 µM | 19.8 µM | 0.329 µM | 20.8 µM | 1.35 µM | 23.1 µM | 0.489 µM | > 54.6 µM | 0.463 µM | > 100 µM | 2 µM | > 100 µM | 0.747 µM | > 32.2 µM | 0.845 µM | > 28.2 µM | 0.514 µM | > 100 µM | 0.915 µM | 62 µM |
| CCN1C(=O)N(CC)C2C1N=C(SC)N2/N=C/C=C/c1ccccc1OC (centres undefined) | 0.413 µM | > 41.1 µM | 0.421 µM | > 39.4 µM | 1.01 µM | > 42.8 µM | 0.411 µM | > 33.1 µM | 0.37 µM | > 35.7 µM | 0.724 µM | > 49.3 µM | 0.538 µM | 31.7 µM | 0.428 µM | 7.31 µM | 0.457 µM | > 46.1 µM | 0.479 µM | 19.6 µM |
| Cc1c(C(N)=O)sc2nc(C)n(/N=c3\scc(-c4ccccc4)n3Cc3ccccc3)c(=O)c12 | 3.05 µM | > 100 µM | 2.92 µM | > 100 µM | 2.18 µM | > 100 µM | 3.32 µM | > 100 µM | 2.64 µM | > 100 µM | 2.86 µM | > 100 µM | 3.82 µM | > 100 µM | 1.34 µM | 5.33 µM | 24.6 µM | > 100 µM | 2.41 µM | 8.89 µM |
| CCC(=O)Nc1nnc(Cc2ccc(OC)c(OC)c2)s1 | > 100 µM | > 100 µM | > 100 µM | > 100 µM | > 100 µM | > 100 µM | > 100 µM | > 100 µM | > 100 µM | > 100 µM | > 100 µM | > 100 µM | > 100 µM | > 100 µM | 78.7 µM | > 100 µM | > 100 µM | > 100 µM | > 100 µM | > 100 µM |
| CNc1cc(-c2cccc(OC(F)(F)F)c2)nc2ccc(N3CCCC3)cc12 | 1.93 µM and 1.94 µM and 1.75 µM | 3.5 µM and 3.48 µM and 3.23 µM | 1.22 µM and 1.65 µM and 1.75 µM | 2.88 µM and 3.32 µM and 3.62 µM | 1.78 µM and 1.92 µM and 1.7 µM | 3.24 µM and 3.4 µM and 3.16 µM | 1.58 µM and 1.69 µM and 1.67 µM | 3.07 µM and 3.08 µM and 3.11 µM | 0.86 µM and 1.16 µM and 1.3 µM | 2.35 µM and 2.54 µM and 2.8 µM | 1.61 µM and 1.63 µM and 1.74 µM | 2.96 µM and 2.98 µM and 3.12 µM | 1.56 µM and 1.71 µM and 1.55 µM | 2.91 µM and 3.22 µM and 2.97 µM | 1.22 µM and 1.3 µM and 1.24 µM | 2.55 µM and 2.64 µM and 2.58 µM | 2.06 µM and 1.81 µM and 1.56 µM | 4.26 µM and 4.18 µM and 3.6 µM | 2.14 µM and 1.94 µM and 1.79 µM | 6.17 µM and 3.65 µM and 3.33 µM |
| Cc1cc(N(CCNc2ccnc3cc(Cl)ccc23)Cc2ccc3c(c2)OCO3)nc(N2CCCC2)n1 | 1.89 µM | 3.9 µM | 1.49 µM | 4.19 µM | 1.89 µM | 3.54 µM | 1.36 µM | 3.21 µM | 1.22 µM | 3.18 µM | 1.91 µM | 4.09 µM | 1.33 µM | 2.85 µM | 0.695 µM | 2.86 µM | 1.86 µM | 7.03 µM | 1.82 µM | 4.27 µM |
| CSc1nc(SC)c2c(C)cn(COCCOC(=O)c3ccccc3)c2n1 |  | > 100 µM |  | > 100 µM |  | > 100 µM |  | > 100 µM |  | > 100 µM |  | > 100 µM |  | > 100 µM |  | 99.7 µM |  | > 100 µM |  | > 100 µM |
| COc1cc(C2NC(=O)C(C#N)=C(Nc3cccc(C)c3)S2)ccc1O (centres undefined) | > 100 µM | > 100 µM | > 100 µM | > 100 µM | > 100 µM | > 100 µM | > 100 µM | > 100 µM | > 100 µM | > 100 µM | > 100 µM | > 100 µM | > 100 µM | > 100 µM | > 100 µM | > 100 µM | > 100 µM | > 100 µM | > 100 µM | > 100 µM |
| COc1cc(C(=O)n2nc(N)c3c(C)cc(C)nc32)cc(OC)c1OC | > 100 µM | > 100 µM | 10.2 µM | > 100 µM | > 100 µM | > 100 µM | > 82.9 µM | > 100 µM | 1.38 µM | > 100 µM | > 100 µM | > 100 µM | > 100 µM | > 100 µM | > 100 µM | > 100 µM | 7.26 µM | > 100 µM | > 100 µM | > 100 µM |
